Measurements: PMC10220285, “Development of an assay pipeline for the discovery of novel small molecule inhibitors of human glutathione peroxidases GPX1 and GPX4” (Redox Biology, 2023)
Read-outs that look alike come from different tables or passages of the source.

Columns and labels:
Type in all cases: biochemical
GPX1 = target: T1, GPX1 (Homo sapiens, UniProt P07203); experiment: GR-coupled GPX1 activity assay (NADPH fluorescence, CHP substrate); settings: for inhibition of GPX1: Fig. 9 pan-selenoprotein inhibitors
T1 construct: made in house; host or cells: E. coli
T1 sequence (P07203 1-203): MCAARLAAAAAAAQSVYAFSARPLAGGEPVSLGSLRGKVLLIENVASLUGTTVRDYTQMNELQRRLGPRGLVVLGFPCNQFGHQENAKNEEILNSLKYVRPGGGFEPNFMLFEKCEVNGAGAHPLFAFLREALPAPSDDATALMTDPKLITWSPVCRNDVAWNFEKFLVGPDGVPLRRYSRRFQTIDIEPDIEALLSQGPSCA

GPX4 = target: T2, GPX4 (Homo sapiens, UniProt P36969); experiment: GR-coupled GPX4 activity assay (NADPH fluorescence, CHP substrate); settings: Fig. 9 pan-selenoprotein inhibitors
T2 construct: made in house; host or cells: E. coli
T2 sequence (P36969 1-170 isoform P36969-2): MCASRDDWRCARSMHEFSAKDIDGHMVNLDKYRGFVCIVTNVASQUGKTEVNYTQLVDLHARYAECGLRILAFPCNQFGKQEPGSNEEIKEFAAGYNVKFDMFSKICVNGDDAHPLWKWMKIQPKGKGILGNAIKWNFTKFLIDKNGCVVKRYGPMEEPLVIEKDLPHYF

human GPX2 = target: T3, human GPX2 (Homo sapiens, UniProt P18283); experiment: GPX2 activity assay (follow-up isoform specificity); settings: for inhibition of GPX2: Fig. 9 pan-selenoprotein inhibitors
T3 construct: made in house
T3 sequence (P18283 1-190): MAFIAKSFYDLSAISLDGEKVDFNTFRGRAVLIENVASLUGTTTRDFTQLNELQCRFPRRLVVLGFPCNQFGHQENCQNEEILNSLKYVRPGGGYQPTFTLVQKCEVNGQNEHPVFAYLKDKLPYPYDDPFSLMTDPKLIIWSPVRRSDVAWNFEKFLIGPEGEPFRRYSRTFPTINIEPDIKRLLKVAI
Protocol: (§1) The compound plates were prepared as described previously. Purified recombinant human GPX1, GPX2, GPX4, GR, and TXNRD1 were produced and purified as previously reported [[48], [49], [50]]. As production of GPX2 was not optimized at the onset of screening, only GPX1 and GPX4 underwent library screening, and GPX2 was used as a follow-up.
(§2) Follow-up and orthogonal assays were run in quadruplicate unless otherwise stated. Assay schemes are illustrated in Fig. 1.
Previous work has shown similarities in the substrate specificities of GPX1 and GPX2, and a more unique substrate profile of GPX4 [8].
The GPX2 isoform of human selenoprotein GPXs is found in epithelial cells and has similar substrate specificity with GPX1, but not as much with GPX4 [8]. Additionally, GPX1 and GPX2 both form homotetramers and share similarities in structural homology, although GPX2 has a much slower turnover rate.

human TXNRD1 = target: T4, human TXNRD1 (Homo sapiens, UniProt Q16881); experiment: Thioredoxin reductase 1 (TXNRD1) inhibition assay (selenite reduction); settings: for inhibition of TXNRD1: Fig. 9 pan-selenoprotein inhibitors
T4 construct: made in house
T4 sequence (Q16881 1-499 isoform Q16881-5): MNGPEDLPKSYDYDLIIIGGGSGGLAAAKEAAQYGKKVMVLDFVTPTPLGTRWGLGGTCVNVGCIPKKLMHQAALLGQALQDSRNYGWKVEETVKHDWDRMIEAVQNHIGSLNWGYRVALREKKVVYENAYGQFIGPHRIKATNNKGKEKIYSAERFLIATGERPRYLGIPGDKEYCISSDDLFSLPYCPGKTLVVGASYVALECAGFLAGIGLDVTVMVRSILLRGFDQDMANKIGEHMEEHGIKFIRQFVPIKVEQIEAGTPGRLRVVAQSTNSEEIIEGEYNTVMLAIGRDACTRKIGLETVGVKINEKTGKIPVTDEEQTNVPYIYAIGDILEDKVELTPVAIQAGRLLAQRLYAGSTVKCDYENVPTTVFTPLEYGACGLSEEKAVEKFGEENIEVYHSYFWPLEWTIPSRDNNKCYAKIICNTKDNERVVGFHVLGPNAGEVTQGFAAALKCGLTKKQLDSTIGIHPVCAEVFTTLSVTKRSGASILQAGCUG
Protocol: as §1, §2
TXNRD1 activity was assessed using a modified 1536-well TXNRD1 inhibition assay, based upon TXNRD1-catalyzed selenite reduction as previously described (Fig. 1D). […] TE buffer was dispensed into column 1 and 2 as a no-enzyme control. Finally, 1 μL of sodium selenite in TE buffer was dispensed into each well for final concentrations of 90 nM hTXNRD1, 0.4 mM NADPH, and 0.4 mM sodium selenite. The plate was read in a Viewlux multimodal detector in kinetic mode and fluorescence at 340 nm/450 nm was measured every minute for 8 min.
Percent activity was determined by first calculating delta RFU (decrease in fluorescence between t = 0 and t = 20/30 min in primary GPX, GR counter-screen, and TXNRD1 assays, or increase in fluorescence between t = 0 and t = 20 min in the Monobromobimane GPX endpoint assay), and normalizing enzyme activity using median delta RFU values for DMSO-treated enzyme control, and DMSO-treated no-enzyme controls.
Compound inhibitory activity in the qHTS assays was determined by plotting dose-response data for each sample and fitting with a four-parameter logistic fit to assess IC50 values, efficacy (maximal response), and AUC (area under the curve), as previously described. Hits were classified by the quality of the concentration-response curves (CRC). Curve classes −1.1 and −1.2 being the highest-confidence actives with complete CRCs and classes −2.1 and −2.2 being lower-confidence actives with incomplete CRCs.

[1] = listed as 2,3-dimercaptopropanesulfonic acid

What does the source list for O=S(=O)(O)CC(S)CS (stereo not drawn) [2,3-dimercaptopropanesulfonate]?
inhibition of GPX1 (GPX1): inhibited all tested selenoproteins; inhibition of GPX1 (GPX1; [1]): inhibited all selenoproteins; inhibition of GPX4 (GPX4): inhibited all tested selenoproteins; inhibition of GPX4 (GPX4; [1]): inhibited all selenoproteins; inhibition of GPX2 (human GPX2): inhibited all tested selenoproteins; inhibition of GPX2 (human GPX2; [1]): inhibited all selenoproteins; inhibition of TXNRD1 (human TXNRD1): inhibited all tested selenoproteins; inhibition of TXNRD1 (human TXNRD1; [1]): inhibited all selenoproteins

Which results are given for CC(=O)OC[C@H]1O[C@@H]([S-])[C@H](OC(C)=O)[C@@H](OC(C)=O)[C@@H]1OC(C)=O.CCP(CC)CC.[Au+] [Auranofin]?
IC50 (GPX1; IC50 of resulting CRC, Table 2, read-out: IC50 GPx1): 4.6 µM; IC50 (GPX1; assay validation, Fig. 2E, read-out: IC50, prior art GPX1 inhibitor activities in optimized assay): 4.84 µM; IC50 (GPX1; compound present in the screening libraries (qHTS), read-out: IC50 GPX1, primary library screen): 2.26 µM; IC50 (GPX1; initial tests comparing GR-coupled and mBBr assay formats, read-out: IC50 in the GR-coupled assay): 1.94 µM; hit status in GPX1 qHTS (GPX1; primary library screen): high-quality active hit for GPX1 in all three; IC50 (human GPX2; IC50 of resulting CRC, Table 2): 2.1 µM; IC50 (human TXNRD1; IC50 of resulting CRC, Table 2, read-out: IC50 TrxR1): 19 µM
